For experiment [1], the system named is lymphocytes derived from cancer patient No. PT009 expanded with OKT3 and CH-296. In words: Resistance to anticancer agents, WST-1 GI50 on cultured lymphocytes of cancer patient No. PT009. It counts as cell-based, human. The following applies: day 10 of culture with OKT3 and CH-296, 20 hours with drug. The procedure: After that, the suspension was stained by the trypan blue staining method to calculate the viable cell count, and then subjected to each experiment.
(§1) On the other hand, the IL-2/5HRPMI was added to the control group in 50 μL/well each.
(§2) These culture plates were incubated at 37° C. for 20 hours in the presence of 5% CO2. After the incubation, WST-1 (Premix WST-1 Cell Proliferation Assay System, manufactured by Takara Bio Inc.) was added in 20 μL/well each to each well of the plate, and incubated in the presence of 5% CO2 at 37° C. for 4 hours. The plates after the incubation were centrifuged at 500×g at room temperature for 5 minutes. After the centrifugation, 100 μL of the supernatant was collected from each well, and the absorbance was measured at an absorption wavelength of 450 nm and a control wavelength of 630 nm [hereinafter referred to as the absorbance (450 nm-630 nm)] using a microplate reader (manufactured by Bio-Rad Laboratories, Inc., Model Number 680XR), and then the specific absorbance (450 nm-630 nm) was calculated according to the following formula.
(§3) Specific absorbance (450 nm-630 nm)=Absorbance of Test Cell Addition Group (450 nm-630 nm)−Absorbance of Control Group (450 nm-630 nm) Formula 2: […]
In general terms: Tetrazolium dyes change colour on reduction, which living cells bring about.

Experiment [2] deals with expanded lymphocytes derived from a human healthy donor. In words: Resistance to anticancer agents, WST-1 GI50 on cultured lymphocytes of a human healthy donor. It counts as cell-based. Particulars: for GI50: Homo sapiens, Lymphocyte. The procedure: as §1, §2, §3
Here, a group where only OKT3 was immobilized to the culture equipment in the expansion of the lymphocytes was also set.
However, in the case of paclitaxel, a human AB type serum was used as a solvent for dilution, and for other drugs, 5HRPMI was used for dilution.

[3] abbreviates: Homo sapiens, Lymphocyte, read-out: GI50.
Setting [4] is: healthy donor lymphocytes expanded with OKT3 + CH-296, read-out: GI50 (μg/mL) Initial Stimulation OKT3 + CH-296.
Setting [5] is: healthy donor lymphocytes expanded with OKT3 alone, read-out: GI50 (μg/mL) Initial Stimulation OKT3.

≈ marks a conversion by molar mass, not a printed value. Counter-ions that a name gives are not always drawn. Like-named read-outs stand apart in the source and are kept apart here.

As for `COc1cccc2c1C(=O)c1c(O)c3c(c(O)c1C2=O)C[C@@](O)(C(=O)CO)C[C@@H]3O[C@H]1C[C@H](N)[C@H](O)[C@H](C)O1` [Doxorubicin Hydrochloride, doxorubicin hydrochloride], the figures for the GI50 in experiment [1] (setting [3]), in experiment [2] (setting [4]) and in experiment [2] (setting [5]) were 0.5 µg/mL, 0.41 µg/mL and 0.25 µg/mL, respectively.
As for `CC(=O)O[C@H]1C(=O)[C@@]2(C)[C@H]([C@H](OC(=O)c3ccccc3)[C@]3(O)C[C@H](OC(=O)[C@H](O)[C@@H](NC(=O)c4ccccc4)c4ccccc4)C(C)=C1C3(C)C)[C@]1(OC(C)=O)CO[C@@H]1C[C@@H]2O` [Paclitaxel, paclitaxel], the GI50 turned out to be 39.7 µg/mL in experiment [2] (setting [4]) and 34.1 µg/mL (≈ 0.0399 mM) in experiment [2] (setting [5]).
On to `N.N.O=C([O-])C1(C(=O)[O-])CCC1.[Pt+2]` [Carboplatin, carboplatin], for which the “GI50” value in experiment [1] was determined as 215.5 µg/mL. Further, the “GI50 (μg/mL) Initial Stimulation OKT3 + CH-296” value in experiment [2] (healthy donor lymphocytes expanded with OKT3 + CH-296) stood at 161.31 µg/mL. Further, the “GI50 (μg/mL) Initial Stimulation OKT3” value in experiment [2] (healthy donor lymphocytes expanded with OKT3 alone) was 116.16 µg/mL.
For the compound `O=c1[nH]cc(F)c(=O)[nH]1` [Fluorouracil, fluorouracil], the GI50 in experiment [1] (setting [3]) is 639 µg/mL (≈ 4.91 mM); in experiment [2] (setting [4]), 3270 µg/mL; in experiment [2] (setting [5]), 2290 µg/mL (≈ 17.6 mM).
For `CC[C@]1(O)C[C@H]2CN(CCc3c([nH]c4ccccc34)[C@@](C(=O)OC)(c3cc4c(cc3OC)N(C=O)[C@H]3[C@@](O)(C(=O)OC)[C@H](OC(C)=O)[C@]5(CC)C=CCN6CC[C@]43[C@@H]65)C2)C1` [Vincristine Sulfate, vincristine sulfate], the GI50 in experiment [1] (setting [3]) is 0.2 µg/mL; in experiment [2] (setting [4]) it was 24.3 µg/mL; in experiment [2] (setting [5]) it was 4.42 µg/mL.
As to `N.N.[Cl][Pt][Cl]` [Cisplatin, cisplatin], in experiment [1], the “GI50” value was determined as 3.7 µg/mL.
